Assay results: the NIST ThermoML archive (doi:10.1016/j.fluid.2013.08.029)

Experiment: xn = mol fraction of the nth substance listed
Settings: 101 kPa, Liquid; for speed of sound: Sing-around technique in a fixed-path interferometer; for mass density: Vibrating tube method

CCCCCn1cc[n+](C)c1.[Br-] [1-pentyl-3-methylimidazolium bromide] + OCCO
Settings	mass density [kg/m3]	speed of sound [m/s]
288.15 K, x1 = 0.0528	1135.7	1671.7
288.15 K, x1 = 0.1031	1149.85	1664.4
288.15 K, x1 = 0.2102	1173.93	1650.6
288.15 K, x1 = 0.3163	1191.2	1645.3
288.15 K, x1 = 0.4186	1204.89	1641.4
288.15 K, x1 = 0.512	1215.13	1637.7
288.15 K, x1 = 0.6129	1224.18	1636.5
288.15 K, x1 = 0.6967	1232.13	1638.7
288.15 K, x1 = 0.8031	1241.92	1645
288.15 K, x1 = 0.9021	1252.46	1657.9
293.15 K, x1 = 0.0528	1132.19	1659.9
293.15 K, x1 = 0.1031	1146.32	1653.9
293.15 K, x1 = 0.2102	1170.4	1642
293.15 K, x1 = 0.3163	1187.71	1634.5
293.15 K, x1 = 0.4186	1201.44	1628.9
293.15 K, x1 = 0.512	1211.73	1625.5
293.15 K, x1 = 0.6129	1220.73	1623.6
293.15 K, x1 = 0.6967	1228.69	1623.8
293.15 K, x1 = 0.8031	1238.53	1626.3
293.15 K, x1 = 0.9021	1249.15	1631.1
298.15 K, x1 = 0.0528	1128.67	1648.2
298.15 K, x1 = 0.1031	1142.79	1640.8
298.15 K, x1 = 0.2102	1166.87	1630.7
298.15 K, x1 = 0.3163	1184.21	1623
298.15 K, x1 = 0.4186	1198	1616.8
298.15 K, x1 = 0.512	1208.33	1613.8
298.15 K, x1 = 0.6129	1217.41	1612.4
298.15 K, x1 = 0.6967	1225.25	1611.9
298.15 K, x1 = 0.8031	1235.13	1613.2
298.15 K, x1 = 0.9021	1245.76	1616
303.15 K, x1 = 0.0528	1125.14	1636.4
303.15 K, x1 = 0.1031	1139.26	1629.8
303.15 K, x1 = 0.2102	1163.34	1619.1
303.15 K, x1 = 0.3163	1180.73	1611.6
303.15 K, x1 = 0.4186	1194.57	1606.2
303.15 K, x1 = 0.512	1204.94	1603
303.15 K, x1 = 0.6129	1214.06	1601.7
303.15 K, x1 = 0.6967	1221.86	1600.4
303.15 K, x1 = 0.8031	1231.73	1600.9
303.15 K, x1 = 0.9021	1242.37	1602.4
308.15 K, x1 = 0.0528	1121.61	1624.7
308.15 K, x1 = 0.1031	1135.72	1618.3
308.15 K, x1 = 0.2102	1159.81	1607.5
308.15 K, x1 = 0.3163	1177.25	1600.1
308.15 K, x1 = 0.4186	1191.13	1594.3
308.15 K, x1 = 0.512	1201.54	1591.3
308.15 K, x1 = 0.6129	1210.72	1590
308.15 K, x1 = 0.6967	1218.56	1589.1
308.15 K, x1 = 0.8031	1228.31	1589.3
308.15 K, x1 = 0.9021	1238.93	1589.8
313.15 K, x1 = 0.0528	1118.07	1613.1
313.15 K, x1 = 0.1031	1132.18	1606.5
313.15 K, x1 = 0.2102	1156.29	1596.1
313.15 K, x1 = 0.3163	1173.78	1588.8
313.15 K, x1 = 0.4186	1187.7	1583.2
313.15 K, x1 = 0.512	1198.15	1580.3
313.15 K, x1 = 0.6129	1207.38	1579.1
313.15 K, x1 = 0.6967	1215.25	1578.2
313.15 K, x1 = 0.8031	1225	1578
313.15 K, x1 = 0.9021	1235.48	1578
318.15 K, x1 = 0.0528	1114.51	1601.4
318.15 K, x1 = 0.1031	1128.62	1595
318.15 K, x1 = 0.2102	1152.75	1584.5
318.15 K, x1 = 0.3163	1170.3	1577.5
318.15 K, x1 = 0.4186	1184.27	1572.2
318.15 K, x1 = 0.512	1194.76	1569.5
318.15 K, x1 = 0.6129	1204.05	1568.3
318.15 K, x1 = 0.6967	1211.94	1567.4
318.15 K, x1 = 0.8031	1221.73	1567.1
318.15 K, x1 = 0.9021	1232.06	1566.8

CCCCn1cc[n+](C)c1C.F[B-](F)(F)F [1-butyl-2,3-dimethylimidazolium tetrafluoroborate] + OCCO
Settings	mass density [kg/m3]	speed of sound [m/s]
288.15 K, x1 = 0.0698	1138.16	1674
288.15 K, x1 = 0.1114	1148.04	1668.1
288.15 K, x1 = 0.219	1163.09	1661.9
288.15 K, x1 = 0.3157	1172.24	1657
288.15 K, x1 = 0.4167	1177.8	1653.7
288.15 K, x1 = 0.5153	1181.99	1652.5
288.15 K, x1 = 0.6157	1185.96	1653.1
288.15 K, x1 = 0.7042	1189.36	1654.9
288.15 K, x1 = 0.8028	1192.88	1658
288.15 K, x1 = 0.9065	1196.58	1662.1
293.15 K, x1 = 0.0698	1134.55	1661
293.15 K, x1 = 0.1114	1144.09	1655.6
293.15 K, x1 = 0.219	1159.15	1649.5
293.15 K, x1 = 0.3157	1167.38	1643.8
293.15 K, x1 = 0.4167	1172.09	1639.4
293.15 K, x1 = 0.5153	1176.32	1638
293.15 K, x1 = 0.6157	1180.66	1638.7
293.15 K, x1 = 0.7042	1184.47	1641.5
293.15 K, x1 = 0.8028	1188.27	1645.2
293.15 K, x1 = 0.9065	1192.09	1649.9
298.15 K, x1 = 0.0698	1130.93	1648.8
298.15 K, x1 = 0.1114	1140.43	1643.3
298.15 K, x1 = 0.219	1155.3	1636.8
298.15 K, x1 = 0.3157	1162.95	1631.4
298.15 K, x1 = 0.4167	1167.85	1628.2
298.15 K, x1 = 0.5153	1171.8	1627.1
298.15 K, x1 = 0.6157	1176.73	1627.5
298.15 K, x1 = 0.7042	1180.56	1630.3
298.15 K, x1 = 0.8028	1184.59	1633.5
298.15 K, x1 = 0.9065	1188.59	1637.7
303.15 K, x1 = 0.0698	1127.3	1637
303.15 K, x1 = 0.1114	1136.79	1631.5
303.15 K, x1 = 0.219	1151.47	1624.4
303.15 K, x1 = 0.3157	1158.29	1619.7
303.15 K, x1 = 0.4167	1162.58	1616.6
303.15 K, x1 = 0.5153	1166.36	1615.5
303.15 K, x1 = 0.6157	1171.53	1616.5
303.15 K, x1 = 0.7042	1176.14	1618.8
303.15 K, x1 = 0.8028	1180.73	1621.7
303.15 K, x1 = 0.9065	1185.16	1625.7
308.15 K, x1 = 0.0698	1123.65	1625.3
308.15 K, x1 = 0.1114	1133.19	1619.4
308.15 K, x1 = 0.219	1147.66	1612.2
308.15 K, x1 = 0.3157	1154.93	1607.7
308.15 K, x1 = 0.4167	1158.22	1604.7
308.15 K, x1 = 0.5153	1161.45	1604.2
308.15 K, x1 = 0.6157	1167.01	1605
308.15 K, x1 = 0.7042	1172.28	1607.4
308.15 K, x1 = 0.8028	1177.55	1610.5
308.15 K, x1 = 0.9065	1182.72	1613.7
313.15 K, x1 = 0.0698	1120	1613.8
313.15 K, x1 = 0.1114	1129.53	1607.9
313.15 K, x1 = 0.219	1143.87	1600
313.15 K, x1 = 0.3157	1150.95	1595.7
313.15 K, x1 = 0.4167	1154.7	1592.9
313.15 K, x1 = 0.5153	1158.26	1592.8
313.15 K, x1 = 0.6157	1163.8	1594
313.15 K, x1 = 0.7042	1169.14	1596.4
313.15 K, x1 = 0.8028	1174.46	1598.9
313.15 K, x1 = 0.9065	1179.21	1602
318.15 K, x1 = 0.0698	1116.33	1602.5
318.15 K, x1 = 0.1114	1125.84	1596.2
318.15 K, x1 = 0.219	1140.07	1587.9
318.15 K, x1 = 0.3157	1147.06	1584
318.15 K, x1 = 0.4167	1150.9	1581.2
318.15 K, x1 = 0.5153	1154.9	1581.6
318.15 K, x1 = 0.6157	1160.61	1582.8
318.15 K, x1 = 0.7042	1165.8	1585.1
318.15 K, x1 = 0.8028	1171.11	1587.7
318.15 K, x1 = 0.9065	1175.65	1590.8
